Test results published in publication PMC5390981, “Peptide probes derived from pertuzumab by molecular dynamics modeling for HER2 positive tumor imaging” (PLoS Computational Biology, 2017).
No end group written: not given here.

Columns and labels:
[1] = test system: SKBR3 cell line with high HER2 expression; assay: Confocal fluorescence imaging of cells incubated with Cy5.5-labeled peptides; assay type: cell-based; conditions: 50 μM Cy5.5-labeled peptide, 4°C, 20 min
Description: Four cell lines (SKBR3, MCF7, MDA-MB-468, and 293A) were seeded at a density of 3000 cells/mL into culture dishes and allowed to culture overnight with 5% CO2 at 37°C. Cell nuclei was stained with 1 mM Hoechst 33342 in 200 μL cell culture medium and incubated at 37°C for 15 min. Then, cells were incubated in culture medium with 50 μM Cy5.5-labeled peptide at 4°C for 20 min. Finally, cells were washed three times with cold PBS for observation. An Olympus FV1000-IX81 confocal-laser scanning microscope was used for confocal fluorescence imaging. An FV5-LAMAR 633 nm laser was used as the excitation source, and the emission wave length was collected at 690 nm. Hoechst 33342 was excited by a FV5-LD405-2 405 nm laser and collected within the range of 422–472 nm. All microscope parameters were identical for all observations of the binding ability of the various peptides.

[2] = test system: subcutaneous SKBR3 tumor xenografts; assay: In vivo and ex vivo fluorescence imaging of tumor targeting; set-up: species or system Balb/c female nude mice; conditions: for in vivo tumor fluorescence intensity (binding affinity increase) relative to the control Cy5.5: Cy5.5-labeled peptide 1 μM, 200 μL i.v. tail vein, 30 min postinjection, nude mice with SKBR3 xenografts, average n = 3; for ex vivo tumor fluorescence signal compared to controls: dissected tumors 30 min postinjection of Cy5.5-labeled peptide, n = 3
Description: Five to six-week-old Balb/c female nude mice were subcutaneously administered approximately 1 × 10^7 SKBR3 cells into the right hind leg, to establish xenografted tumors. Thereafter, tumor size was periodically measured with a caliper, and mice with tumors of 6−8 mm in diameter were selected for the following small animal experiments. Cy5.5–NHS (Lumiprobe) was used to label peptides. Either Cy5.5-peptides or the control Cy5.5 (1 μM, 200 μL) was intravenously injected into tumor-bearing nude mice via the tail vein. The mice were anesthetized and fluorescence signals measured using the small animal in vivo imaging system 30 min postinjection. Three mice were used for each peptide and for control. Near-infrared fluorescence imaging of tumor-bearing nude mice were taken with an exposure time of 50 ms, using the Cy5.5 filter sets (excitation: 673 nm; emission: 707 nm), and the intensities were quantified using the same software. Then, fluorescence images of the main organs and of tumors dissected from nude mice were individually taken as above.

[3] = test system: SKBR3; assay: Toxicity of peptides to cells (S4 Fig); assay type: cell-based
[4] = molecular target: HER2/biotin complex (Homo sapiens, UniProt P04626); assay: OBOC peptide library screening with magnetic beads; assay type: binding; conditions: library of 5184 sequences, HER2/biotin and magnetic streptavidin microspheres, 37°C, 2 h each step
From the text: The OBOC peptide library was designed based on binding free energies derived from the MD simulations of single and double mutants that are lower than the HER2/4665 complex. These mutations are in the 4665 fragment of pertuzumab from 55 to 64: EWVADVNPNX55X56X57X58X59X60N61X62X63X64K. According to computational calculations, the V, S, and M mutants have lower energies for X55. This is also the case for G, M, and Y for X56; G, A, and V for X57; S, F, and H for X58; I and R for X59; Y and W for X60; Q and F for X62; R, W, Q, and V for X63; and F and R for X64. The result is a 3*3*3*3*2*2*2*4*2 = 5184 library capacity.
The OBOC library synthesis and screening was performed as per the previously used method. Briefly, HBTU (4 mmol) and Fmoc-amino acid (4 mmol) reagent was dissolved in 0.4 mol/L N-Methyl morpholine in N,N-dimethylformamide and coupled with the solid phase supporting materials for 40 min during the coupling step. A 20% piperidine was used to remove the Fmoc group for 10 min in the deprotection step. During the OBOC library synthesis, the amino acid coupling process was carried out in the “split” step, while the deprotection process was carried out in the “pool” step. After elongation, a trifluoroacetic acid cleavage reagent was introduced to cleave the side chain protection group of each residue. […]

[5] = test system: HUVEC; assay: Toxicity of peptides to cells (S4 Fig); assay type: cell-based
[6] = molecular target: T1, HER2 protein (human epidermal growth factor receptor 2) (human, UniProt P04626 23-652); assay: SPR; SPR imaging (SPRi, PlexArray HT); peptides immobilised through an N-terminal cysteine on a bare gold chip, blocked with 5% nonfat milk; HER2 or HSA in PBST flowed at 0.625 to 20 μg/mL; KD from fitting association-dissociation curves; conditions: both partners purified
T1 construct: Human epidermal growth factor receptor 2 (HER2), bought protein; Surmise: the bought protein is probably a soluble extracellular domain, possibly tagged; source: bought: Sino Biological Inc., China

[7] = molecular target: HER2 on cells (SKBR3, high expression; MCF7, medium expression) (human (endogenous in SKBR3), UniProt P04626 23-1255); assay: cell-based or functional assay

## Cy5.5-58F63Y: peptide 58F63Y labeled with Cy5.5 (Cy5.5–NHS) (EWVADVNPNSGGFIYNQYFK; also: Cy5.5 label (via Cy5.5-NHS), position not given here)
[1]
  fluorescent intensity of Cy5.5-peptides in SKBR3 cells: strongest fluorescence

## EWVADVNPNSGGFIYNQYFK [58F63Y]
[2]
  in vivo tumor fluorescence intensity (binding affinity increase) relative to the control Cy5.5: 5.09 fold
  ex vivo tumor fluorescence signal compared to controls: significantly high fluorescence signals
[3]
  toxicity to SKBR3 cells: no toxicity
[4]
  OBOC library screening result (bead identified by MALDI-TOF-MS/MS): positive
[5]
  toxicity to HUVEC cells: no toxicity

## EWVADVNPNSGGSIYNQRFK [compound 4665]
[2]
  in vivo tumor fluorescence intensity (binding affinity increase) relative to the control Cy5.5: 3.52 fold
  ex vivo tumor fluorescence signal compared to controls: significantly high fluorescence signals
[3]
  toxicity to SKBR3 cells: no toxicity
[5]
  toxicity to HUVEC cells: no toxicity

B1: peptide 58F63Y with N-terminal cysteine, for SPRi (peptide)
peptide: CEWVADVNPNSGGFIYNQYFK
notes: a cysteine residue linked to the amino terminal, for attachment to the bare gold chip; numbers count on: pertuzumab (first letter is 46); source: synthetic peptide (Fmoc solid phase synthesis, HPLC purified)
[6]
  Kd: 0.536 µM

## EWVADVNPNSGGFIYNQYFK (also: Cy5.5 label (via Cy5.5-NHS), position not given here) [Cy5.5-labeled peptide 58F63Y]
[7]
  in vivo fluorescence intensity of SKBR3 tumor xenografts in nude mice 30 min after injection of Cy5.5-58F63Y, relative to the control Cy5.5: 5.09 fold

B2: peptide 63Y (4665 with Arg63 to Tyr) with N-terminal cysteine, for SPRi (peptide)
peptide: CEWVADVNPNSGGSIYNQYFK
notes: as for B1
[6]
  Kd: 1.54 µM

B3: peptide 4665 (pertuzumab fragment Glu46 to Lys65) with N-terminal cysteine, for SPRi (peptide)
peptide: CEWVADVNPNSGGSIYNQRFK
notes: a cysteine residue linked to the amino terminal, for attachment to the bare gold chip; fragment of pertuzumab from Glu46 to Lys65 (beta hairpin); numbers count on: pertuzumab in PDB 1S78; source: synthetic peptide (Fmoc solid phase synthesis, HPLC purified)
[6]
  Kd: 9.86 µM

B4: peptide 58F (4665 with Ser58 to Phe) with N-terminal cysteine, for SPRi (peptide)
peptide: CEWVADVNPNSGGFIYNQRFK
notes: as for B1
[6]
  Kd: 1.32 µM

B5: peptide 55V (4665 with Ser55 to Val) with N-terminal cysteine, for SPRi (peptide)
peptide: CEWVADVNPNVGGSIYNQRFK
notes: as for B1
[6]
  Kd: 64.6 µM

B6: peptide 55V63Y with N-terminal cysteine, for SPRi (peptide)
peptide: CEWVADVNPNVGGSIYNQYFK
notes: as for B1
[6]
  Kd: 8.16 µM
